{"source": "patent US20090325964A1", "about": "“Piperazine Metabotropic Glutamate Receptor 5 (MGLUR5) Negative Allosteric Modulators For Anxiety/Depression” (Wyeth, priority 2008, published 2009)", "target": "T1, rat mGluR5 receptor (Rattus norvegicus, UniProt P31424)", "T1 construct": "expressed in transfected cells; host or cells: HEK-293", "T1 sequence (P31424 21-1203)": "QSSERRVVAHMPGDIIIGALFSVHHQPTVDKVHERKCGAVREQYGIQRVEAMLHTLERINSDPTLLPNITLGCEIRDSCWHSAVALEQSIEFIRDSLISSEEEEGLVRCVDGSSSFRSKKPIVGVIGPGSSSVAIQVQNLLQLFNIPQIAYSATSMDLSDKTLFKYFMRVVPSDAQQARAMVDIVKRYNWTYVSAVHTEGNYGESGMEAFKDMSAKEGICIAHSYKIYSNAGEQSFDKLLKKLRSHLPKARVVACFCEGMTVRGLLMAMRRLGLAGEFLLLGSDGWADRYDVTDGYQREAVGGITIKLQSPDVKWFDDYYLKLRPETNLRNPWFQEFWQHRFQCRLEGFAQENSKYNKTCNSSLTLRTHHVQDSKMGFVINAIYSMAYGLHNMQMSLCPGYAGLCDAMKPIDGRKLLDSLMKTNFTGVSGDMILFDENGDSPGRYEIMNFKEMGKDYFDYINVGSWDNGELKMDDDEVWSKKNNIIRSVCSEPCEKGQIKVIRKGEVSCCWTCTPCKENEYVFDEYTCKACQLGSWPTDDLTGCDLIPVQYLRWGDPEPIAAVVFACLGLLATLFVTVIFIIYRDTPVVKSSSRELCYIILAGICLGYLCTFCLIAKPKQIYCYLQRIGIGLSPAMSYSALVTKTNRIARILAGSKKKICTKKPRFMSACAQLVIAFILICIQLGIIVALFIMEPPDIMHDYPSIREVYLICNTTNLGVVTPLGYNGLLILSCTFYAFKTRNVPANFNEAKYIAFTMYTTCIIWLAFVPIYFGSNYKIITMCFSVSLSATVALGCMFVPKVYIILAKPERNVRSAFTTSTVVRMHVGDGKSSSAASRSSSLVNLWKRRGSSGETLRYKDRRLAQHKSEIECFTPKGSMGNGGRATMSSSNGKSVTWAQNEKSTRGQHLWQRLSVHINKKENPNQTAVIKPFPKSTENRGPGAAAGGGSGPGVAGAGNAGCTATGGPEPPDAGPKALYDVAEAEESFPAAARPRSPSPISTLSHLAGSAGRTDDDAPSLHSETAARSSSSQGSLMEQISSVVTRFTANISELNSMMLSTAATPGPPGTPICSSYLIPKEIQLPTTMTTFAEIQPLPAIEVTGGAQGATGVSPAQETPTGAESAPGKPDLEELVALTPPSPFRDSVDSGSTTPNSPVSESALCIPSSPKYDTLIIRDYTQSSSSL", "experiment": "[3H]-MPEP displacement binding assay, HEK-293 cell membranes expressing rat mGluR5", "conditions": "for Ki: read-out: Median Ki; for IC50: no Ki given, read-out: IC50 (printed in the Median Ki column instead of a Ki)", "procedure,_shortened": "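Membranes from HEK-293 cells expressing rat mGluR5 (12-25 μg protein), incubated 60 min at room temperature with 4 nM [3H]-MPEP in 50 mM Tris pH 7.5, then filtered. Nonspecific binding defined with 10 μM MPEP.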", "key": {"[1]": {"conditions": "[3H]-MPEP displacement, rat mGluR5"}, "[2]": {"conditions": "1 h, single point, @ 10 μm compound, Table 1A, read-out: PCT INHIB (%) @ 10 μm"}, "[3]": {"conditions": "@ 10 μM compound, Biological Activity, Table 2A, read-out: PCT INHIB (%) @ 10 μM"}, "[4]": {"conditions": "single point, @ 10 μM compound, Table 3A, read-out: PCT INHIB (%) @ 10 μM"}}, "note": "Where two headings read alike, the source gives them in different places.", "data": [{"compound": "COc1ccc(C(=O)N2CCCN(c3cccc(C)n3)CC2)cc1C#Cc1ccccn1", "note": "[Compound 211, 1-[4-methoxy-3-(pyridin-2-ylethynyl)benzoyl]-4-(6-methylpyridin-2-yl)-1,4-diazepane]", "values": [{"measurement": "Ki", "setting": "[1]", "result": 619, "unit": "nM"}]}, {"compound": "Cc1ccc(C(=O)N2CCN(c3ccccn3)CC2)cc1C#CCc1ccccc1", "note": "[Compound 25, 1-[4-methyl-3-(3-phenylprop-1-yn-1-yl)benzoyl]-4-pyridin-2-ylpiperazine]", "values": [{"measurement": "inhibition at 10 µM", "setting": "[2]", "result": 63, "unit": "%"}, {"measurement": "Ki", "result": 452, "unit": "nM"}]}, {"compound": "COc1ccc(C(=O)N2CCN(c3nnc(-c4ncc([N+](=O)[O-])n4C)s3)CC2)cc1C#Cc1ccccn1", "note": "[Compound 283, 1-[4-methoxy-3-(pyridin-2-ylethynyl)benzoyl]-4-[5-(1-methyl-5-nitro-1H-imidazol-2-yl)-1,3,4-thiadiazol-2-yl]piperazine]", "values": [{"measurement": "Ki", "setting": "[1]", "result": 2310, "unit": "nM"}]}, {"compound": "Nc1cccc(C#Cc2cccc(CN3CCN(c4ccccn4)CC3)c2)c1", "note": "[Compound 180, 3-({3-[(4-pyridin-2-ylpiperazin-1-yl)methyl]phenyl}ethynyl)aniline]", "values": [{"measurement": "inhibition at 10 µM", "setting": "single point, @ 10 μM compound, Table 6, read-out: PCT INHIB (%) @ 10 μM", "result": 0, "unit": "%"}]}, {"compound": "CC1CN(C(=O)c2cccc(C#Cc3ccccn3)c2)CCN1c1ccccn1", "note": "(stereo not shown) [Compound 105, 2-methyl-1-pyridin-2-yl-4-[3-(pyridin-2-ylethynyl)benzoyl]piperazine]", "values": [{"measurement": "inhibition at 10 µM", "setting": "[3]", "result": 58, "unit": "%"}, {"measurement": "Ki", "setting": "Biological Activity, Table 2A", "result": 826, "unit": "nM"}]}, {"compound": "COc1ccc(C(=O)N2CCN(c3ccc(S(C)(=O)=O)cc3)CC2)cc1C#Cc1ccccn1", "note": "[Compound 238, 1-[4-methoxy-3-(pyridin-2-ylethynyl)benzoyl]-4-[4-(methylsulfonyl)phenyl]piperazine]", "values": [{"measurement": "Ki", "setting": "[1]", "result": 521, "unit": "nM"}]}, {"compound": "COc1ccc(C(=O)N2CCN(c3ncccc3Cl)CC2)cc1C#Cc1cccc(OC(F)(F)F)c1", "note": "[Compound 344, 1-(3-chloropyridin-2-yl)-4-(4-methoxy-3-{[3-(trifluoromethoxy)phenyl]ethynyl}benzoyl)piperazine]", "values": [{"measurement": "IC50", "setting": "[1]", "result": "> 10000", "unit": "nM"}]}, {"compound": "COc1ccc(C(=O)N2CCN(c3cc4ccccc4s3)CC2)cc1C#Cc1ccccn1", "note": "[Compound 290, 1-(1-benzothiophen-2-yl)-4-[4-methoxy-3-(pyridin-2-ylethynyl)benzoyl]piperazine]", "values": [{"measurement": "IC50", "setting": "[1]", "result": "> 10000", "unit": "nM"}]}, {"compound": "COc1cccc(C#Cc2cccc(S(=O)(=O)N3CCN(c4ccccn4)CC3)c2)c1", "note": "[Compound 175, 1-({3-[(3-methoxyphenyl)ethynyl]phenyl}sulfonyl)-4-pyridin-2-ylpiperazine]", "values": [{"measurement": "inhibition at 10 µM", "setting": "single point, @ 10 μM compound, Table 5, read-out: PCT INHIB (%) @ 10 μM", "result": 0, "unit": "%"}]}, {"compound": "Cc1ccc(C(=O)N2CCN(c3ccccn3)CC2)cc1C#Cc1ccccn1", "note": "[Compound 42, 1-[4-methyl-3-(pyridin-2-ylethynyl)benzoyl]-4-pyridin-2-ylpiperazine]", "values": [{"measurement": "inhibition at 10 µM", "setting": "[2]", "result": 96, "unit": "%"}, {"measurement": "Ki", "result": 5.9, "unit": "nM"}]}, {"compound": "Cc1ccnc(N2CCN(C(=O)c3ccnc(C#Cc4ccccc4)c3)CC2)c1", "note": "[Compound 124, 1-(4-methylpyridin-2-yl)-4-[2-(phenylethynyl)isonicotinoyl]piperazine]", "values": [{"measurement": "inhibition at 10 µM", "setting": "[3]", "result": 84, "unit": "%"}, {"measurement": "Ki", "setting": "Biological Activity, Table 2A", "result": 338, "unit": "nM"}]}, {"compound": "Cc1ccc(C(=O)N2CCN(c3ncc(Cl)cc3Cl)CC2)cc1C#Cc1ccccn1", "note": "[Compound 310, 1-(3,5-dichloropyridin-2-yl)-4-[4-methyl-3-(pyridin-2-ylethynyl)benzoyl]piperazine]", "values": [{"measurement": "Ki", "setting": "[1]", "result": 745, "unit": "nM"}]}, {"compound": "COc1nc(N2CCN(C(=O)c3ccc(OC(F)(F)F)c(C#Cc4ccccn4)c3)CC2)ncc1Br", "note": "[Compound 339, 5-bromo-4-methoxy-2-{4-[3-(pyridin-2-ylethynyl)-4-(trifluoromethoxy)benzoyl]piperazin-1-yl}pyrimidine]", "values": [{"measurement": "Ki", "setting": "[1]", "result": 702, "unit": "nM"}]}, {"compound": "COc1ccc(C(=O)N2CCCN(c3ncccc3C#N)CC2)cc1C#Cc1ccccn1", "note": "[Compound 214, 2-{4-[4-methoxy-3-(pyridin-2-ylethynyl)benzoyl]-1,4-diazepan-1-yl}nicotinonitrile]", "values": [{"measurement": "Ki", "setting": "[1]", "result": 458, "unit": "nM"}]}, {"compound": "O=C(c1cncc(C#Cc2ccccc2)c1)N1CCN(c2ncccn2)CC1", "note": "[Compound 130, 2-(4-{[5-(phenylethynyl)pyridin-3-yl]carbonyl}piperazin-1-yl)pyrimidine]", "values": [{"measurement": "inhibition at 10 µM", "setting": "[3]", "result": 47, "unit": "%"}]}, {"compound": "COc1ccc(C(=O)N2CCN(c3ccccn3)CC2)cc1OCc1cccc(Br)c1", "note": "[Compound 159, 1-{3-[(3-bromobenzyl)oxy]-4-methoxybenzoyl}-4-pyridin-2-ylpiperazine]", "values": [{"measurement": "inhibition at 10 µM", "setting": "[4]", "result": 26, "unit": "%"}]}, {"compound": "2-{4-[4-methoxy-3-(pyridin-2-ylethynyl)benzoyl]piperazin-1-yl}-1,3-benzothiazole [Compound 256]", "values": [{"measurement": "Ki", "setting": "[1]", "result": 43, "unit": "nM"}]}, {"compound": "O=C(c1cccc(C#Cc2ccccc2C(F)(F)F)c1)N1CCN(c2ccccn2)CC1", "note": "[Compound 5, 1-pyridin-2-yl-4-(3-{[2-(trifluoromethyl)phenyl]ethynyl}benzoyl)piperazine]", "values": [{"measurement": "inhibition at 10 µM", "setting": "[2]", "result": 0, "unit": "%"}]}, {"compound": "COc1ccc(C(=O)N2CCN(c3nc(Cl)ncc3F)CC2)cc1C#Cc1ccccn1", "note": "[Compound 295, 2-chloro-5-fluoro-4-{4-[4-methoxy-3-(pyridin-2-ylethynyl)benzoyl]piperazin-1-yl}pyrimidine]", "values": [{"measurement": "Ki", "setting": "[1]", "result": 102, "unit": "nM"}]}, {"compound": "COc1cccc(COc2cccc(C(=O)N3CCN(c4ccccn4)CC3)c2)c1", "note": "[Compound 155, 1-{3-[(3-methoxybenzyl)oxy]benzoyl}-4-pyridin-2-ylpiperazine]", "values": [{"measurement": "inhibition at 10 µM", "setting": "[4]", "result": 0, "unit": "%"}]}, {"compound": "1-(2-chlorobenzyl)-4-[4-methoxy-3-(pyridin-2-ylethynyl)benzoyl]piperazin-2-one [Compound 332]", "values": [{"measurement": "Ki", "setting": "[1]", "result": 32, "unit": "nM"}]}, {"compound": "COc1ccc(C(=O)N2CCN(c3ccccn3)CC2)cc1C#Cc1cccc(F)c1", "note": "[Compound 63, 1-{3-[(3-fluorophenyl)ethynyl]-4-methoxybenzoyl}-4-pyridin-2-ylpiperazine]", "values": [{"measurement": "Ki", "result": 7.34, "unit": "nM"}]}, {"compound": "COc1ccc(C(=O)N2CCN(c3nc4ccc([N+](=O)[O-])cc4s3)CC2)cc1C#Cc1ccccn1", "note": "[Compound 282, 2-{4-[4-methoxy-3-(pyridin-2-ylethynyl)benzoyl]piperazin-1-yl}-6-nitro-1,3-benzothiazole]", "values": [{"measurement": "IC50", "setting": "[1]", "result": "> 10000", "unit": "nM"}]}, {"compound": "Cc1cc(C#Cc2cc(C(=O)N3CCN(c4ccccn4)CC3)ccc2C)ccc1F", "note": "[Compound 31, 1-{3-[(4-fluoro-3-methylphenyl)ethynyl]-4-methylbenzoyl}-4-pyridin-2-ylpiperazine]", "values": [{"measurement": "inhibition at 10 µM", "setting": "[2]", "result": 68, "unit": "%"}, {"measurement": "Ki", "result": 472, "unit": "nM"}]}, {"compound": "Cc1ccc(C(=O)N2CCN(c3ccccn3)CC2)cc1C#Cc1cccc(O)c1", "note": "[Compound 46, 3-({2-methyl-5-[(4-pyridin-2-ylpiperazin-1-yl)carbonyl]phenyl}ethynyl)phenol]", "values": [{"measurement": "inhibition at 10 µM", "setting": "[2]", "result": 71, "unit": "%"}, {"measurement": "Ki", "result": 1310, "unit": "nM"}]}, {"compound": "O=C(c1cncc(C#Cc2ccccc2)c1)N1CCN(c2cnccn2)CC1", "note": "[Compound 137, 2-(4-{[5-(phenylethynyl)pyridin-3-yl]carbonyl}piperazin-1-yl)pyrazine]", "values": [{"measurement": "inhibition at 10 µM", "setting": "[3]", "result": 32, "unit": "%"}]}, {"compound": "COc1ccc(C(=O)N2CCN(c3ncccn3)CC2)cc1C#Cc1ccccc1Cl", "note": "[Compound 360, 2-(4-{3-[(2-chlorophenyl)ethynyl]-4-methoxybenzoyl}piperazin-1-yl)pyrimidine]", "values": [{"measurement": "Ki", "setting": "[1]", "result": 4500, "unit": "nM"}]}, {"compound": "COc1ccc(C(=O)N2CCN(c3ccccn3)CC2)cc1OCc1cccc(C)c1", "note": "[Compound 151, 1-{4-methoxy-3-[(3-methylbenzyl)oxy]benzoyl}-4-pyridin-2-ylpiperazine]", "values": [{"measurement": "inhibition at 10 µM", "setting": "[4]", "result": 0, "unit": "%"}]}, {"compound": "COc1ccc(C(=O)N2CCN(c3ccccn3)CC2)cc1C#Cc1cc(C)ccc1C", "note": "[Compound 22, 1-{3-[(2,5-dimethylphenyl)ethynyl]-4-methoxybenzoyl}-4-pyridin-2-ylpiperazine]", "values": [{"measurement": "inhibition at 10 µM", "setting": "[2]", "result": 43, "unit": "%"}]}, {"compound": "O=C(c1cccc(C#CC(O)c2ccccc2)c1)N1CCN(c2ccccn2)CC1", "note": "(stereo not shown) [Compound 13, 1-phenyl-3-{3-[(4-pyridin-2-ylpiperazin-1-yl)carbonyl]phenyl}prop-2-yn-1-ol]", "values": [{"measurement": "inhibition at 10 µM", "setting": "[2]", "result": 15, "unit": "%"}]}, {"compound": "O=C(c1cncc(C#Cc2ccccc2)c1)N1CCN(c2ccccn2)CC1", "note": "[Compound 87, 1-{[5-(phenylethynyl)pyridin-3-yl]carbonyl}-4-pyridin-2-ylpiperazine]", "values": [{"measurement": "inhibition at 10 µM", "setting": "[3]", "result": 56, "unit": "%"}, {"measurement": "Ki", "setting": "Biological Activity, Table 2A", "result": 3310, "unit": "nM"}]}, {"compound": "COc1ccc(C(=O)N2CCN(c3ccccn3)CC2)cc1OCc1cccc(C#N)c1", "note": "[Compound 162, 3-({2-methoxy-5-[(4-pyridin-2-ylpiperazin-1-yl)carbonyl]phenoxy}methyl)benzonitrile]", "values": [{"measurement": "inhibition at 10 µM", "setting": "[4]", "result": 0, "unit": "%"}]}, {"compound": "Cc1ccc(C(=O)N2CCN(c3ccccn3)CC2)cc1C#Cc1cccc(F)c1", "note": "[Compound 64, 1-{3-[(3-fluorophenyl)ethynyl]-4-methylbenzoyl}-4-pyridin-2-ylpiperazine]", "values": [{"measurement": "Ki", "result": 131, "unit": "nM"}]}, {"compound": "O=C(c1cccc(C#Cc2ccccc2)c1)N1CCN(c2ccc(Cl)cc2)CC1", "note": "[Compound 72, 1-(4-chlorophenyl)-4-[3-(phenylethynyl)benzoyl]piperazine]", "values": [{"measurement": "inhibition at 10 µM", "setting": "[3]", "result": 30, "unit": "%"}]}, {"compound": "CC1CN(c2ccccn2)CCN1C(=O)c1cccc(C#Cc2ccccn2)c1", "note": "(stereo not shown) [Compound 98, 2-methyl-4-pyridin-2-yl-1-[3-(pyridin-2-ylethynyl)benzoyl]piperazine]", "values": [{"measurement": "inhibition at 10 µM", "setting": "[3]", "result": 72, "unit": "%"}, {"measurement": "Ki", "setting": "Biological Activity, Table 2A", "result": 679, "unit": "nM"}]}, {"compound": "O=C(c1cccc(COc2ccccn2)c1)N1CCN(c2ccccn2)CC1", "note": "[Compound 170, 1-pyridin-2-yl-4-{3-[(pyridin-2-yloxy)methyl]benzoyl}piperazine]", "values": [{"measurement": "Ki", "setting": "[3H]-MPEP 4 nM, Table 4A", "result": "> 10000", "unit": "nM"}]}, {"compound": "COc1ccc(C(=O)N2CCN(c3ncccc3Cl)CC2)cc1C#Cc1ccc(C(F)(F)F)cc1", "note": "[Compound 349, 1-(3-chloropyridin-2-yl)-4-(4-methoxy-3-{[4-(trifluoromethyl)phenyl]ethynyl}benzoyl)piperazine]", "values": [{"measurement": "IC50", "setting": "[1]", "result": "> 10000", "unit": "nM"}]}, {"compound": "O=C(c1ccc(C(F)(F)F)c(C#Cc2ccccn2)c1)N1CCN(c2cnccn2)CC1", "note": "[Compound 381, 2-(4-{[3-(pyridin-2-ylethynyl)-4-(trifluoromethyl)phenyl]carbonyl}piperazin-1-yl)pyrazine]", "values": [{"measurement": "Ki", "setting": "[3H]-MPEP displacement, rat mGluR5 membranes", "result": 162, "unit": "nM"}]}]}
